Reference: PMC3127977, “No relevant cardiac, pharmacokinetic or safety interactions between roflumilast and inhaled formoterol in healthy subjects: an open-label, randomised, actively controlled study” (BMC Clinical Pharmacology, 2011)

Columns and labels:
[1] = Steady-state plasma pharmacokinetics (HPLC-MS/MS) in healthy men; oral roflumilast 500 μg once daily, inhaled formoterol 24 μg twice daily; conditions: for AUC / Cmax: male, human, plasma, oral; for AUC: AUCτ; for AUC / Cmax / C trough / CL/F: steady state, geometric mean (68% range)
Description: For Regimen A, subjects received 500 μg oral roflumilast once daily (daily dose: one tablet of roflumilast 500 μg) from the morning of Day 2 to the morning of Day 18. […] For Regimen B, subjects received 24 μg formoterol for oral inhalation delivered by a DPI device (Foradil® P) twice daily, once in the morning and once in the evening from the morning of Day 2 to the evening of Day 18.
Pre-dose blood samples for determination of trough levels were taken on Days 9 and 10 for Regimen A (morning only), and on Days 6 and 7 (morning and evening) for Regimen B. Blood samples (4.5 mL) were collected in heparinised tubes and plasma was obtained by centrifugation at 1550 g for 15 minutes. Plasma samples were stored at -20°C or below for roflumilast, and at -70°C for formoterol. Plasma concentrations of roflumilast and roflumilast N-oxide were determined using high-performance liquid chromatography coupled with tandem mass spectrometry (HPLC-MS/MS). […] Roflumilast and roflumilast N-oxide standard curves were valid up to 20 ng/mL and 40 ng/mL, respectively. Determination of roflumilast and roflumilast N-oxide was performed at Altana Pharma AG, Konstanz, Germany (Nycomed GmbH). Plasma concentrations of formoterol were determined using HPLC-MS/MS. The LLOQ in plasma was 0.4 pg/mL using a sample volume of 1.0 mL. […] Determination of formoterol was performed at pharm-analyt Labor GmbH, Baden, Austria, under the supervision of Altana Pharma AG(Nycomed GmbH).
For roflumilast, roflumilast N-oxide and formoterol, the maximum plasma concentration (Cmax) was derived directly from the plasma concentrations. The AUC from time zero to the time of the last quantifiable concentration, which corresponded to the dosing interval of each analyte (AUC0-τ), was estimated using the linear trapezoidal method. Apparent clearance at steady state (CL/F; calculated by dose/AUCτ) was reported for roflumilast only. […] The calculation of tPDE4i was based on the equation described in Lahu et al..

healthy subjects [2] = test: Digital 12-lead electrocardiography (HR, QT, QTc); assay type: in vivo, human
Description: Digital 12-lead ECGs were recorded immediately after each ZCG recording. Tracings were analysed off-study by regimen-blinded qualified analysts, using previously reported methodology. For each time point, three cycles were measured with regard to the RR, PQ and QT-intervals [ms]. The means of the three measurements were used for the calculation of HR and HR-corrected QTc intervals, according to Bazett's equation (QTcB = QT/RR^1/2) and Fridericia's equation (QTcF = QT/RR^1/3).

healthy subjects [3] = test: Adverse event monitoring; assay type: in vivo, human
Description: Blood and urine samples for conventional clinical laboratory safety tests were obtained at the screening visit, in the morning of each main profiling day, and on Day 19. Adverse events (AEs) were monitored throughout the study.

[4] = cited from earlier work
[5] = parameters: method as in PMID 20690782; conditions: cited from earlier work
healthy subjects [6] = test system: healthy subjects; parameters: method as in earlier work; conditions: cited from earlier work
[7] = Serum glucose concentration on profiling days; conditions: Regimen A, Day 11
Description: (§1) During the main profiling days, blood was sampled at each ZCG time point for the determination of serum glucose and potassium concentrations.

[8] = Serum potassium concentration on profiling days; conditions: Regimen A, Day 11
Description: as §1

[9] = 500 μg, Regimen A Day 11 (roflumilast alone)
[10] = Regimen A Day 18 (roflumilast plus formoterol)
[11] = Regimen B Day 18 (formoterol plus roflumilast)
[12] = Regimen A Day 11 (roflumilast alone)

O=C(Nc1c(Cl)cncc1Cl)c1ccc(OC(F)F)c(OCC2CC2)c1 [Roflumilast, 3-cyclopropylmethoxy-N-(3,5-dichloropyridin-4-yl)-4-(difluoromethoxy)benzamide]
steady-state AUC and Cmax values lower ([1]; Regimen B Day 18 (co-administered with formoterol) compared with Regimen A Day 11 or Day 18): 10-15%
changes in peak concentration and exposure ([1]; concomitant inhaled formoterol compared with roflumilast alone): less than 1%
changes in steady-state pharmacokinetics when the other drug was added ([1]; formoterol added to roflumilast, or roflumilast added to formoterol): no relevant changes
AUC [1, 9]: 35.8 ng·h/mL
Cmax [1, 9]: 6.89 ng/mL
AUC [1, 10]: 36.9 ng·h/mL
AUC [1, 11]: 31.8 ng·h/mL
Cmax [1, 10]: 6.43 ng/mL
Cmax [1, 11]: 5.92 ng/mL
C trough [1, 12]: 0.53 (0.33-0.85) μg/L
CL/F [1, 12]: 13.9 (10.8-17.9) L/h
C trough [1, 10]: 0.50 (0.29-0.86) μg/L
CL/F [1, 10]: 13.5 (10.3-17.7) L/h
C trough [1, 11]: 0.37 (0.18-0.77) μg/L
CL/F [1, 11]: 15.7 (10.4-23.5) L/h
HR (ECG) (healthy subjects [2]; 12-lead ECG): slight increase
QTc values, uncorrected or corrected using Bazett's or Fridericia's formula (healthy subjects [2]; 12-lead ECG): no clinically relevant changes
duration of the QT interval (healthy subjects [2]; 12-lead ECG): decrease
QT/QTc intervals (healthy subjects [2]; all subjects, all regimens): below 450 ms
number of AEs (healthy subjects [3]; Regimen A, Day 2 to Day 11): 17 AEs
subjects who experienced AEs (healthy subjects [3]; Regimen A, Day 2 to Day 11, n = 12): 7 subjects
dizziness reports (healthy subjects [3]; Regimen A, roflumilast alone): four
myalgia reports (healthy subjects [3]; Regimen A, roflumilast alone): four
tremor (healthy subjects [3]; administered alone (Regimens A and B respectively)): not observed
median effective plasma half-life ([4]; repeated dose): 17 h
mean bioavailability ([4]; single oral 500 μg dose, healthy individuals): 79%
dose dependence of pharmacokinetics ([4]; within the 250-1000 μg dose range): dose-proportional
increase in tPDE4i expected in patients with COPD compared with healthy individuals [5]: 12.6%
effect on cardiac repolarisation (QT/QTc interval) (healthy subjects [6]): no significant effect
median pre-dose serum glucose [7]: 4.75 mmol/L
median pre-dose serum potassium level [8]: 4.16 mmol/L
